Results on 24 molecules are retold here after patent US20040224958A1, “Pyridopyrimidinone derivatives for treatment of neurodegenerative disease” (priority 2000, published 2004).

One experiment deals with cdk2/cyclinE (Homo sapiens, UniProt P24941). The experiment is described as follows: Cyclin-Dependent Kinase Assay cdk2/cyclinE. The settings on record: cdk2/E IC50.
Another experiment has as its target Cdk5/p25 (Homo sapiens, UniProt Q00535). The experiment is described as follows: Cyclin-Dependent Kinase 5 High Throughput Screening (cdk5-HTS) Assay. In kind it is biochemical. The settings on record: high throughput screen. Here is the method: Cyclin-Dependent Kinase 5 High Throughput Screening (cdk5-HTS) Assay
Enzyme assays for IC50 determinations were performed in 96-Pierce Reacti-Bind™ White Opaque Glutatione Coated Plates (Cat. No. 15240B).
The total volume was 0.100 mL containing a final concentration of 50 mM TRIS (tris[hydroxymethyl]aminomethane) at pH 7.4, 50 mM NaCl, 10 mM MgCl2, 5 mM dithiothreitol, 20 μM ATP containing 16 μCi/mL of Redivue[y33P]ATP (Amersham Pharmacia Biotech Cat. No. AH9968), 1.0 μg/mL Cdk5/p25, 20 μg/mL GST-RbCOOH, and appropriate dilutions of a compound of the present invention. The reaction was started by adding[^33P]ATP, and the plate was shaken for 30 seconds, then incubated at room temperature for 30 minutes. The reaction was terminated by addition of 0.05 mL of 120 mM EDTA. The plate was kept at room temperature for 45 minutes to allow substrate to bind to the walls of the plate. The wells were then washed three times with 0.2 mL of 1×PBS. Once thoroughly dry, 0.140 mL of MicroScint™2O (Packard Bioscience Cat. No. 87-9081) cocktail was added to all wells. The incorporation of ^33P was determined with a beta plate counter (Packard Topcount).

The target of another experiment is cdc2/cyclinB (Homo sapiens, UniProt P06493). The experiment in a line: Cyclin-Dependent Kinase Assay cdc2/cyclinB.
A further experiment addresses cdk4/D (Homo sapiens, UniProt P11802). The experiment in a line: Cyclin-Dependent Kinase 4 (cdk4) Assay. Format: biochemical. To be noted: read-out: cdk4/D IC50. On the procedure:
A typical assay, for instance, measures inhibitory activity against the cyclin D dependent kinase 4 enzyme (cdk4/D). […] The cdk4 assay was carried out as follows.
Cyclin-Dependent Kinase 4 (cdk4) Assay
All components except the ATP were added to the wells, and the plate was placed on a plate mixer for 2 minutes. The reaction was started by adding [^32P]ATP and the plate was incubated at 25° C. for 15 minutes. The reaction was terminated by addition of 0.1 mL of 20% trichloroacetic acid (TCA). The plate was kept at 4° C. for at least 1 hour to allow the substrate to precipitate. The wells were then washed five times with 0.2 mL of 10% TCA and ^32P incorporation was determined with a beta plate counter (Wallac Inc., Gaithersburg, Md.).

In another experiment the target is cdk2/cyclinA (Homo sapiens, UniProt P24941). The experiment is described as follows: Cyclin-Dependent Kinase Assay cdk2/cyclinA. To be noted: cdk2/A IC50.

Chain of cdk4/D (P11802 whole entry): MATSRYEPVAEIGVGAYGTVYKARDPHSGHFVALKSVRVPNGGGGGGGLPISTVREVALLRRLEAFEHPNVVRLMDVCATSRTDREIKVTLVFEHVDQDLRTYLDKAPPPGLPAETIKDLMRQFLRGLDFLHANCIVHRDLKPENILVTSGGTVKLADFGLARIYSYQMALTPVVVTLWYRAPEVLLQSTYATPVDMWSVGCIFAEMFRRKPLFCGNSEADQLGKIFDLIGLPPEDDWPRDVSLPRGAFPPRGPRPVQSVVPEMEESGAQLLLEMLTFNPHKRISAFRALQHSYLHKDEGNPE
Chain of cdk4/D (P24385 whole entry, further chain): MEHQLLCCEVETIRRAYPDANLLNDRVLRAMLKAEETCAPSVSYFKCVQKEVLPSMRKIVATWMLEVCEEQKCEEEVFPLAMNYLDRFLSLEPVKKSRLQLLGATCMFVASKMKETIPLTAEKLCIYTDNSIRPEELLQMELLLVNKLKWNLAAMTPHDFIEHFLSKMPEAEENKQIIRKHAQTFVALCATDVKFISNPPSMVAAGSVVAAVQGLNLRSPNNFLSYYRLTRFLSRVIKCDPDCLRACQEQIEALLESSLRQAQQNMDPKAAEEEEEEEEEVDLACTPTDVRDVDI
Chain of cdc2/cyclinB (P06493 whole entry): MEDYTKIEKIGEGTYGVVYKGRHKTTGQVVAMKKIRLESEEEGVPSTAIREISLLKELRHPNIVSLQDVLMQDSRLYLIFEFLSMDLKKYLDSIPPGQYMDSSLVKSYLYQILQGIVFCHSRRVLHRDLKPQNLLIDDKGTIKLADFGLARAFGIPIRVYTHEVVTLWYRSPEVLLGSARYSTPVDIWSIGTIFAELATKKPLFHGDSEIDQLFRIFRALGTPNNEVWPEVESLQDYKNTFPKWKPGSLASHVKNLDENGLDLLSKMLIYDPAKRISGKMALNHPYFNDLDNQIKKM
Chain of cdc2/cyclinB (P14635 whole entry, further chain): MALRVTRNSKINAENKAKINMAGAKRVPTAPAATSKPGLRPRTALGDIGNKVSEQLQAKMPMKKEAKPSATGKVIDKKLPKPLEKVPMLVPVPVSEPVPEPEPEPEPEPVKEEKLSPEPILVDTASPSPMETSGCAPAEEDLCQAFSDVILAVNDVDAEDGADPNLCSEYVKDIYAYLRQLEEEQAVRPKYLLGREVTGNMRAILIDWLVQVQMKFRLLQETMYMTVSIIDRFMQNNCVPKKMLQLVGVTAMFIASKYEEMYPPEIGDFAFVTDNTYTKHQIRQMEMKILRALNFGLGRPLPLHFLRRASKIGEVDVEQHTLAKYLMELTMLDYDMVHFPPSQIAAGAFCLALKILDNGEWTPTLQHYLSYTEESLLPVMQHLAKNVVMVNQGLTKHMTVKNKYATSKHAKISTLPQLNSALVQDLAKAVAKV
Description for cdc2/cyclinB: Cyclin-Dependent Kinase Assays (cdk2/cyclinE, cdk2/cyclinA, cdc2/cyclinB)
All components except the ATP were added to the wells, and the plate was placed on a plate mixer for 2 minutes. The reaction was begun by addition of [^32P]ATP, and the plate was incubated at 25° C. for 15 minutes. The reaction was terminated by addition of 0.1 mL of 20% TCA. The plate was kept at 4° C. for at least 1 hour to allow the substrate to precipitate. The wells were then washed five times with 0.2 mL of 10% TCA and ^32p incorporation determined with a beta plate counter (Wallac Inc., Gaithersburg, Md.).

For the molecule `CCn1c(=O)ccc2cnc(Nc3cc(OC)c(OC)c(OC)c3)nc21` [Example 292, 8-Ethyl-2-(3,4,5-trimethoxy-phenylamino)-8H-pyrido[2,3-d]pyrimidin-7-one], the IC50 against cdk2/cyclinE came out at 1.2 µM; at Cdk5/p25, 0.61 µM; against cdc2/cyclinB, 0.86 µM.

For `CCn1c(=O)ccc2cnc(Nc3cc([N+](=O)[O-])ccc3F)nc21` [Example 297, 8-Ethyl-2-(2-fluoro-5-nitro-phenylamino)-8H-pyrido[2,3-d]pyrimidin-7-one], the IC50 on cdk2/cyclinE was 2.3 µM; at Cdk5/p25, 0.87 µM; on cdk4/D it was 3.3 µM; at cdc2/cyclinB, 3.7 µM.

Consider `CCn1c(=O)ccc2cnc(Nc3ccc(C#N)c(C#N)c3)nc21` [Example 298, 4-(8-Ethyl-7-oxo-7,8-dihydro-pyrido[2,3-d]pyrimidin-2-ylamino)-phthalonitrile], for which the IC50 against cdk2/cyclinE turned out to be 1.4 µM; on Cdk5/p25 it was 0.43 µM; at cdk4/D, 2 µM; at cdc2/cyclinB, 1.9 µM.

As for `CCn1c(=O)ccc2cnc(Nc3ccc(C#N)c(NC(C)=O)c3)nc21` [Example 299, N-[2-Cyano-5-(8-ethyl-7-oxo-7,8-dihydro-pyrido[2,3-d]pyrimidin-2-ylamino)-phenyl]-acetamide], the IC50 on cdk2/cyclinE came out at 2.7 µM; against Cdk5/p25, 1 µM; on cdk4/D, 1.5 µM; against cdc2/cyclinB it was 2.9 µM.

For `CCCn1c(=O)ccc2cnc(Nc3cc(C(F)(F)F)ccc3F)nc21` [Example 311, 2-(2-Fluoro-5-trifluoromethyl-phenylamino)-8-propyl-8H-pyrido[2,3-d]pyrimidin-7-one], the IC50 against cdk2/cyclinE stood at 1.46 µM; on Cdk5/p25, 1.16 µM; on cdk4/D, 3 µM; at cdc2/cyclinB it was 1.76 µM.

As for `CCCn1c(=O)ccc2cnc(Nc3cc(C(F)(F)F)cc(C(F)(F)F)c3)nc21` [Example 315, 2-(3,5-Bis-trifluoromethyl-phenylamino)-8-propyl-8H-pyrido[2,3-d]pyrimidin-7-one], the IC50 against cdk2/cyclinE was determined as 2.58 µM; against Cdk5/p25, 2.44 µM; on cdc2/cyclinB, 2.19 µM.

Turning to `CCCn1c(=O)ccc2cnc(Nc3cc(OC)c(OC)c(OC)c3)nc21` [Example 334, 8-Propyl-2-(3,4,5-trimethoxy-phenylamino)-8H-pyrido[2,3-d]pyrimidin-7-one], the IC50 on cdk2/cyclinE came to 0.91 µM; against Cdk5/p25, 0.3 µM; against cdc2/cyclinB, 1.3 µM.

As to `CCCn1c(=O)ccc2cnc(Nc3cc(OC)cc(C(F)(F)F)c3)nc21` [Example 342, 2-(3-Methoxy-5-trifluoromethyl-phenylamino)-8-propyl-8H-pyrido[2,3-d]pyrimidin-7-one], the IC50 was 0.37 µM against cdk2/cyclinE, 1.8 µM at cdk2/cyclinA, 1.4 µM against Cdk5/p25 and 2.2 µM at cdk4/D.

As for `CCCn1c(=O)ccc2cnc(Nc3ccc(Cl)c(Cl)c3)nc21` [Example 350, 2-(3,4-Dichloro-phenylamino)-8-propyl-8H-pyrido[2,3-d]pyrimidin-7-one], the results for the IC50 at cdk2/cyclinE, on Cdk5/p25 and at cdc2/cyclinB were 1.2 µM, 0.23 µM and 3.1 µM, respectively.

Regarding `CCCCn1c(=O)ccc2cnc(Nc3cc(C(F)(F)F)ccc3F)nc21` [Example 372, 8-Butyl-2-(2-fluoro-5-trifluoromethyl-phenylamino)-8H-pyrido[2,3-d]pyrimidin-7-one], the figures for the IC50 against cdk2/cyclinE, against Cdk5/p25 and against cdc2/cyclinB were 1.03 µM, 2.27 µM and 2.4 µM, respectively.

`CCCCn1c(=O)ccc2cnc(Nc3cc(Cl)cc(Cl)c3)nc21` [Example 391, 8-Butyl-2-(3,5-dichloro-phenylamino)-8H-pyrido[2,3-d]pyrimidin-7-one]: the IC50 worked out at 0.065 µM against cdk2/cyclinE, 0.058 µM against Cdk5/p25, 0.515 µM at cdk4/D and 0.165 µM against cdc2/cyclinB.

Turning to `CC(C)n1c(=O)ccc2cnc(Nc3ccc(F)c(Cl)c3)nc21` [Example 419, 2-(3-Chloro-4-fluoro-phenylamino)-8-isopropyl-8H-pyrido[2,3-d]pyrimidin-7-one], the IC50 against cdk2/cyclinE is 0.12 µM; at Cdk5/p25 it was 0.033 µM; at cdk4/D it was 0.26 µM; at cdc2/cyclinB, 0.14 µM.

On to `CC(C)n1c(=O)ccc2cnc(Nc3cc([N+](=O)[O-])ccc3F)nc21` [Example 420, 2-(2-Fluoro-5-nitro-phenylamino)-8-isopropyl-8H-pyrido[2,3-d]pyrimidin-7-one], for which the IC50 against cdk2/cyclinE stood at 1 µM; against Cdk5/p25, 0.66 µM; on cdk4/D it was 1 µM; against cdc2/cyclinB, 1.4 µM.

Regarding `CC(C)n1c(=O)ccc2cnc(Nc3cc(C(F)(F)F)ccc3F)nc21` [Example 428, 2-(2-Fluoro-5-trifluoromethyl-phenylamino)-8-isopropyl-8H-pyrido[2,3-d]pyrimidin-7-one], the IC50 turned out to be 2.4 µM at cdk2/cyclinE, 0.89 µM on Cdk5/p25, 2.4 µM on cdk4/D and 2.6 µM against cdc2/cyclinB.

With `CCC(C)n1c(=O)ccc2cnc(Nc3cc(C(F)(F)F)ccc3F)nc21` (centres unmarked) [Example 466, 8-sec-Butyl-2-(2-fluoro-5-trifluoromethyl-phenylamino)-8H-pyrido[2,3-d]pyrimidin-7-one], the IC50 against cdk2/cyclinE worked out at 1.4 µM; at Cdk5/p25, 0.31 µM; at cdk4/D it was 1.5 µM; against cdc2/cyclinB it was 1.3 µM.

For `CCC(CC)n1c(=O)ccc2cnc(Nc3ccc(F)c(C)c3)nc21` [Example 503, 8-(1-Ethyl-propyl)-2-(4-fluoro-3-methyl-phenylamino)-8H-pyrido[2,3-d]pyrimidin-7-one], the IC50 against cdk2/cyclinE is 0.036 µM; on Cdk5/p25, 0.013 µM; at cdk4/D it was 0.17 µM; against cdc2/cyclinB it was 0.079 µM.

Regarding `CCC(CC)n1c(=O)ccc2cnc(Nc3cc([N+](=O)[O-])ccc3F)nc21` [Example 504, 8-(1-Ethyl-propyl)-2-(2-fluoro-5-nitro-phenylamino)-8H-pyrido[2,3-d]pyrimidin-7-one], the IC50 came to 0.38 µM against cdk2/cyclinE, 0.37 µM against Cdk5/p25, 0.21 µM at cdk4/D and 0.52 µM at cdc2/cyclinB.

With `CCC(CC)n1c(=O)ccc2cnc(Nc3cc(F)c(NC(C)=O)c(Cl)c3)nc21` [Example 514, N-{2-Chloro4-[8-(1-ethyl-propyl)-7-oxo-7,8-dihydro-pyrido[2,3-d]pyrimidin-2-ylamino]-6-fluoro-phenyl}-acetamide], the IC50 came to 3.1 µM against cdk2/cyclinE, 1.1 µM on Cdk5/p25, 0.25 µM on cdk4/D and 2 µM on cdc2/cyclinB.

Take `O=c1ccc2cnc(Nc3ccc(OC(F)(F)F)cc3)nc2n1CC1CC1` [Example 591, 8-Cyclopropylmethyl-2-(4-trifluoromethoxy-phenylamino)-8H-pyrido[2,3-d]pyrimidin-7-one]: the IC50 was found to be 1.8 µM against cdk2/cyclinE, 0.14 µM on Cdk5/p25, 0.21 µM on cdk4/D and 3.9 µM at cdc2/cyclinB.

With `O=c1ccc2cnc(Nc3ccc4[nH]ncc4c3)nc2n1CC(F)(F)F` [Example 594, 2-(1H-Indazol-5-ylamino)-8-(2,2,2-trifluoro-ethyl)-8H-pyrido[2,3-d]pyrimidin-7-one], the IC50 against cdk2/cyclinE is 1.67 µM; at Cdk5/p25, 0.555 µM; against cdc2/cyclinB it was 1.9 µM.

In the case of `O=c1ccc2cnc(Nc3ccc(O)cc3F)nc2n1CC(F)(F)F` [Example 596, 2-(2-Fluoro-4-hydroxy-phenylamino)-8-(2,2,2-trifluoro-ethyl)-8H-pyrido[2,3-d]pyrimidin-7-one], the IC50 against cdk2/cyclinE was 1.3 µM; on Cdk5/p25, 0.72 µM; against cdc2/cyclinB it was 1.86 µM.

As to `O=c1ccc2cnc(Nc3cccc([N+](=O)[O-])c3)nc2n1CC(F)(F)F` [Example 599, 2-(3-Nitro-phenylamino)-8-(2,2,2-trifluoro-ethyl)-8H-pyrido[2,3-d]pyrimidin-7-one], the IC50 on cdk2/cyclinE amounted to 1.7 µM; at Cdk5/p25, 0.785 µM; at cdc2/cyclinB, 2.35 µM.

In the case of `COc1cc(Nc2ncc3ccc(=O)n(CC(F)(F)F)c3n2)cc(C(F)(F)F)c1` [Example 606, 2-(3-Methoxy-5-trifluoromethyl-phenylamino)-8-(2,2,2-trifluoro-ethyl)-8H-pyrido[2,3-d]pyrimidin-7-one], the IC50 against Cdk5/p25 was 1.8 µM; on cdk4/D it was 3.8 µM; against cdc2/cyclinB it was 3.5 µM.

Turning to `COc1ccc(Nc2ncc3ccc(=O)n(C)c3n2)cc1OC` [Example 617, 2-(3,4-Dimethoxy-phenylamino)-8-methyl-8H-pyrido[2,3-d]pyrimidin-7-one], the IC50 on cdk2/cyclinE came to 2.9 µM; at Cdk5/p25, 0.595 µM; against cdc2/cyclinB, 1.7 µM.
